Assay results from patent publication US11242337B2, “Compounds useful for treating gastrointestinal tract disorders” (Ardelyx, Inc., priority 2017, dated 2022).

How the values were obtained:
NHE3 [1] = biological target: T1, NHE3 (Homo sapiens, UniProt P48764); assay: Cell-based assay of NHE-3 activity (persistent inhibition), human; settings: human Persistence, 60 min incubation then washout
T1 construct: expressed in transfected cells
T1 sequence (P48764 26-834): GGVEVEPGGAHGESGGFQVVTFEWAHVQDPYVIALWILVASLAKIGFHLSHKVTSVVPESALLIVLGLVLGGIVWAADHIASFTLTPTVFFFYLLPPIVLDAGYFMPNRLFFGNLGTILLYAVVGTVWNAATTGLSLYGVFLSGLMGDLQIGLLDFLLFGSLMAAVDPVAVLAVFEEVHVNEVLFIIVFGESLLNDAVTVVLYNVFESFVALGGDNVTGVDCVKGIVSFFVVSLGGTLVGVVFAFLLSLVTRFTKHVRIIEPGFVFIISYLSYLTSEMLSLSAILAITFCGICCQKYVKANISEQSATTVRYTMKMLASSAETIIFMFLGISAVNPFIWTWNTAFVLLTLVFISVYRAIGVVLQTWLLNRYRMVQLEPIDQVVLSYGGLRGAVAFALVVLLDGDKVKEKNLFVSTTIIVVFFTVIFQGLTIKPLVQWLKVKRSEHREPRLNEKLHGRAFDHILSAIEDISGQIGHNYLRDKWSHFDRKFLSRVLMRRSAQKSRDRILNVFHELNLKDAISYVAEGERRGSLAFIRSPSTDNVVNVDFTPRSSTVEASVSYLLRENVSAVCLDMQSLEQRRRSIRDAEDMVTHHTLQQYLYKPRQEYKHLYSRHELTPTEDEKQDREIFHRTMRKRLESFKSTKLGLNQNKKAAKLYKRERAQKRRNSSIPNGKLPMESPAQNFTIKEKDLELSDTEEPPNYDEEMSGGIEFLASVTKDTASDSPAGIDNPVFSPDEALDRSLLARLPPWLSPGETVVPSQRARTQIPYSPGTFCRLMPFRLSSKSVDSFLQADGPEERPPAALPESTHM
T1 sequence (Q99653 2-195 partner limits assumed): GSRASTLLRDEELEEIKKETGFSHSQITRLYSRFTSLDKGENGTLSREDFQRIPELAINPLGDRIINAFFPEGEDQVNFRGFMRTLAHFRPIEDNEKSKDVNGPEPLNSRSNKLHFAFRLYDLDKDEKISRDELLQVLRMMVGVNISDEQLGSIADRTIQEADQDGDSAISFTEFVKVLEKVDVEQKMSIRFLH
Summary of the method: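 Persistent inhibition: compound (0-30 μM, 60 min, RT, NaCl-HEPES pH 7.4) removed before assay. Human NHE3/NHERF2 PS120 cells were then BCECF-loaded during NH4Cl pulse (30 min, 37 °C), acidified in Na+-free buffer, and Na+ added 10 min after washout; antiport measured as initial fluorescence-ratio change per minute.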

NHE3 [2] = biological target: T1, NHE3; assay: Cell-based assay of NHE-3 activity (pre-incubation inhibition), human; settings: human Preincubation; for IC50 / pIC50: 0-30 μM test compound
Summary of the method: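 Activity read as initial rate of BCECF fluorescence ratio change per minute (ex 439/505, em 538 nm) following NH4Cl prepulse acid loading. Compound (0–30 μM) present during 10 min Na+-free acidification at room temperature; cells were PS120 fibroblasts stably co-expressing human NHE3 and NHERF2.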

Row | SMILES | % inhibition (NHE3 [1]) | IC50 (NHE3 [1]) [nM] | % inhibition (NHE3 [2]) | IC50 (NHE3 [2]) [nM] | pIC50 (NHE3 [1]) | pIC50 (NHE3 [2])
1 | N[C@@H]1CCCN([C@H]2Cc3c(Cl)cc(Cl)cc3[C@@H]2Oc2ccc(S(=O)(=O)NCCOCCOCCn3cc(CNC(=O)NCCCCNC(=O)NCc4cn(CCOCCOCCNS(=O)(=O)c5ccc(O[C@H]6c7cc(Cl)cc(Cl)c7C[C@@H]6N6CCC[C@@H](N)C6)cc5)nn4)nn3)cc2)C1 [Example 56, 1-([1-[2-(2-[2-[(4-[[(1S,2S)-2-[(3R)-3-Aminopiperidin-1-yl]-4,6-dichloro-2,3-dihydro-1H-inden-1-yl]oxy]benzene)sulfonamido]ethoxy]ethoxy)ethyl]-1H-1,2,3-triazol-4-yl]methyl)-3-(4-[[([1-[2-(2-[2-[(4-[[(1S,2S)-2-[(3R)-3-aminopiperidin-1-yl]-4,6-dichloro-2,3-dihydro-1H-inden-1-yl]oxy]benzene)sulfonamido]ethoxy]ethoxy)ethyl]-1H-1,2,3-triazol-4-yl]methyl)carbamoyl]amino]butyl)urea] | C (>70%) | < 100 | C (>70%) | < 100 | – | –
2 | NC1CCCN(C2Cc3c(Cl)cc(Cl)cc3C2Oc2ccc(S(=O)(=O)NCCOCCOCCn3cc(CNC(=O)C(O)C(O)C(O)C(O)C(=O)NCc4cn(CCOCCOCCNS(=O)(=O)c5ccc(OC6c7cc(Cl)cc(Cl)c7CC6N6CCCC(N)C6)cc5)nn4)nn3)cc2)C1 [Example 57, (2R,3S,4R,5S)—N^1,N^6-Bis([1-[2-(2-[2-[(4-[[(1S,2S)-2-[(3R)-3-aminopiperidin-1-yl]-4,6-dichloro-2,3-dihydro-1H-inden-1-yl]oxy]benzene)sulfonamido]ethoxy]ethoxy)ethyl]-1H-1,2,3-triazol-4-yl]methyl)-2,3,4,5-tetrahydroxyhexanediamide] | – | – | – | – | C (NHE3 pIC50 > 7) | C (NHE3 pIC50 > 7)
3 | N[C@@H]1CCCN([C@H]2Cc3c(Cl)cc(Cl)cc3[C@@H]2Oc2ccc(S(=O)(=O)NCCCCn3cc(CNC(=O)NCCCCNC(=O)NCc4cn(CCCCNS(=O)(=O)c5ccc(O[C@H]6c7cc(Cl)cc(Cl)c7C[C@@H]6N6CCC[C@@H](N)C6)cc5)nn4)nn3)cc2)C1 [Example 58, 3-[(1-[4-[(4-[[(1S,2S)-2-[(3R)-3-Aminopiperidin-1-yl]-4,6-dichloro-2,3-dihydro-1H-inden-1-yl]oxy]benzene)sulfonamido]butyl]-1H-1,2,3-triazol-4-yl)methyl]-1-[4-([[(1-[4-[(4-[[(1S,2S)-2-[(3R)-3-aminopiperidin-1-yl]-4,6-dichloro-2,3-dihydro-1H-inden-1-yl]oxy]benzene)sulfonamido]butyl]-1H-1,2,3-triazol-4-yl)methyl]carbamoyl]amino)butyl]urea] | C (>70%) | < 100 | C (>70%) | < 100 | – | –
4 | N[C@@H]1CCCN([C@H]2Cc3c(Cl)cc(Cl)cc3[C@@H]2Oc2ccc(S(=O)(=O)NCCCCCCn3cc(CNC(=O)NCCCCNC(=O)NCc4cn(CCCCCCNS(=O)(=O)c5ccc(O[C@H]6c7cc(Cl)cc(Cl)c7C[C@@H]6N6CCC[C@@H](N)C6)cc5)nn4)nn3)cc2)C1 [Example 59, 3-[(1-[6-[(4-[[(1S,2S)-2-[(3R)-3-Aminopiperidin-1-yl]-4,6-dichloro-2,3-dihydro-1H-inden-1-yl]oxy]benzene)sulfonamido]-hexyl]-1H-1,2,3-triazol-4-yl)methyl]-1-[4-([[(1-[6-[(4-[[(1S,2S)-2-[(3R)-3-aminopiperidin-1-yl]-4,6-dichloro-2,3-dihydro-1H-inden-1-yl]oxy]benzene)sulfonamido]hexyl]-1H-1,2,3-triazol-4-yl)methyl]carbamoyl]amino)butyl]urea] | C (>70%) | – | C (>70%) | – | – | –
5 | CC1(C)O[C@H]2[C@@H](OC(C)(C)O[C@H]2C(=O)NCc2cn(CCCCNS(=O)(=O)c3ccc(O[C@H]4c5cc(Cl)cc(Cl)c5C[C@@H]4N4CCC[C@@H](N)C4)cc3)nn2)[C@@H](C(=O)NCc2cn(CCCCNS(=O)(=O)c3ccc(O[C@H]4c5cc(Cl)cc(Cl)c5C[C@@H]4N4CCC[C@@H](N)C4)cc3)nn2)O1 [Example 60, (4R,4aS,8S,8aR)—N^4,N^8-Bis([1-(4-[4-((1S,2S)-2-[(3R)-3-aminopiperidin-1-yl]-4,6-dichloro-2,3-dihydro-1H-inden-1-yloxy)phenylsulfonamide]butyl)-1H-1,2,3-traizol-4-yl]methyl)-2,2,6,6-tetramethyl-tetrahydro-[1,3]dioxino[5,4-d][1,3]dioxine-4,8-dicarboxamide] | C (>70%) | – | C (>70%) | – | C (NHE3 pIC50 > 7) | C (NHE3 pIC50 > 7)
6 | N[C@@H]1CCCN([C@H]2Cc3c(Cl)cc(Cl)cc3[C@@H]2Oc2ccc(S(=O)(=O)NCCCCCCCCNC(=O)NCCCCNC(=O)NCCCCCCCCNS(=O)(=O)c3ccc(O[C@H]4c5cc(Cl)cc(Cl)c5C[C@@H]4N4CCC[C@@H](N)C4)cc3)cc2)C1 [Example 62, 3-[8-[(4-[[(1S,2S)-2-[(3R)-3-Aminopiperidin-1-yl]-4,6-dichloro-2,3-dihydro-1H-inden-1-yl]oxy]benzene)sulfonamido]octyl]-1-[4-[([8-[(4-[[(1S,2S)-2-[(3R)-3-aminopiperidin-1-yl]-4,6-dichloro-2,3-dihydro-1H-inden-1-yl]oxy]benzene)sulfonamido]octyl]carbamoyl)amino]butyl]urea; bis(trifluoroacetic acid)] | A (NHE3 < 40%) | > 1000 | C (>70%) | < 100 | – | –
7 | Cc1cc(S(=O)(=O)NCCCCCCCCNC(=O)NCCCCNC(=O)NCCCCCCCCNS(=O)(=O)c2ccc(O[C@H]3c4cc(Cl)cc(Cl)c4C[C@@H]3N3CCC[C@@H](N)C3)c(C)c2)ccc1O[C@H]1c2cc(Cl)cc(Cl)c2C[C@@H]1N1CCC[C@@H](N)C1 [Example 63, 3-[8-[(4-[[(1S,2S)-2-[(3R)-3-Aminopiperidin-1-yl]-4,6-dichloro-2,3-dihydro-1H-inden-1-yl]oxy]-3-methylbenzene)sulfonamido]octyl]-1-[4-[([8-[(4-[[(1S,2S)-2-[(3R)-3-aminopiperidin-1-yl]-4,6-dichloro-2,3-dihydro-1H-inden-1-yl]oxy]-3-methylbenzene)sulfonamide]octyl]carbamoyl)amino]butyl]urea] | B (40-70%) | 100 to 1000 | B (40-70%) | – | – | C (NHE3 pIC50 > 7)
8 | CN(C)[C@H]1Cc2c(Cl)cc(Cl)cc2[C@@H]1Oc1ccc(S(=O)(=O)NCCCCCCCCNC(=O)NCCCCNC(=O)NCCCCCCCCNS(=O)(=O)c2ccc(O[C@H]3c4cc(Cl)cc(Cl)c4C[C@@H]3N(C)C)cc2)cc1 [Example 64, 3-[8-[(4-[[(1S,2S)-4,6-Dichloro-2-(diamethylamino)-2,3-dihydro-1H-inden-1-yl]oxy]benzene)sulfonamido]octyl]-1-[4-[([8-[(4-[[(1S,2S)-4,6-dichloro-2-(diamethylamino)-2,3-dihydro-1H-inden-1-yl]oxy]benzene)sulfonamido]octyl]carbamoyl)amino]butyl]urea; bis(trifluoroacetic acid)] | A (NHE3 < 40%) | – | A (NHE3 < 40%) | – | – | –
